Test results as given in patent US10370642B2, “Hematopoietic progenitor cell populations having affinity for E-selectin / L-selectin” (priority 2000, dated 2019).

Key:
Assay type in all cases: cell-based, human
[1] = tested on: KG1a cells; assay: L-selectin ligand activity of treated KG1a cells, parallel-plate flow chamber; details: thoracic duct lymphocytes, shear stress 4.4 dynes/cm^2
Method: Leukocyte tethering and rolling on human HC monolayers was visualized by video microscopy in real time using the parallel-plate flow chamber prepared in the following manner. Prior to experimentation, leukocytes were washed twice in HBSS and then suspended at 10^7/ml in HBSS/10 mM HEPES/2mMCaCl2 (H/H/Ca^++). […] To prepare human HC monolayers (100% confluent), suspensions of HCs (KG 1a, HL60, RPMI 8402, K562) at 2×10^6/ml RPMI-1640 without Na+Bicarbonate/2% FBS were seeded in 6-well plates at 5×10^6/well, centrifuged to layer cells then fixed in 3% glutaraldehyde. Reactive aldehyde groups were blocked in 0.2M lysine, and plated cells were suspended H/H/Ca^++. To assess the dependence of binding by sialic acid residues on L-selectin ligands, cells were pretreated with Vibrio cholerae neuraminidase (0.1 U/mlH/H/Ca^++ for lhr at 37° C.). To examine the contribution of sialomucins (including PSGL-1) and PSGL-1 alone, OSGE (60 μg/ml H/H/Ca^++ for lhr at 37° C.) or mocarhagin (10 μg/ml for 20 min at 37° C.) treatments were performed, respectively. […] The number of leukocytes rolling in one frame of five independent fields under 200× magnification at shear stress of 0.2, 0.4, 0.8, 2.2, 4.4, 8.8, 17.6 and 26.4 dynes/cm^2 were quantified. A minimum of 3 experiments was performed over the entire range of shear stress and results were expressed as the mean±standard deviation.

[2] = tested on: HL60 cells; assay: CHO-E cell rolling on glutaraldehyde-fixed HL60 monolayers; details: 2.8 dynes/cm^2; EDTA 5 mM; HECA 452 50 μg/ml
From the text: (§1) E-selectin-mediated adhesive interactions, under defined shear stress, were examined between hematopoietic cell monolayers and suspensions of CHO-E (Chinese hamster ovary cells stably transfected with full-length cDNA encoding human E-selectin) in flow. CHO-E and empty vector constructs (CHO-Mock) were maintained in MEM 10% FBS/1% Penicillin/Streptomycin (Life Technologies, Inc.) and HAM's F-12 (Cellgro, Inc.)/5% FCS/1% Penicillin/Streptomycin, respectively. CHO-E cell tethering and rolling on hematopoietic cell monolayers was visualized by video microscopy in real time using the parallel-plate flow chamber. […] To prepare hematopoietic cell monolayers>90% confluent, suspensions of cells (KG1a, HL60, K562, or RPMI 8402) at 2×10^6/ml RPMI1640 without NaBicarbonate/2% FBS were cytocentrifuged in […] plates at 5×10^6/well and then fixed in 3% glutaraldehyde. Reactive aldehyde groups were blocked in 0.2M lysine, and plated cells were suspended H/H/Ca++. […] The number of CHO-E/Mock cell rolling on each monolayer was measured in one frame of five independent fields under 10× magnification from multiple experiments. A minimum of 3 experiments was performed and results were expressed as the mean±standard deviation.

[3] = tested on: KG1a cells; assay: CHO-E cell rolling on glutaraldehyde-fixed KG1a monolayers; details: 2.8 dynes/cm^2; EDTA 5 mM; HECA 452 50 μg/ml
From the text: as §1

neuraminidase: Vibrio cholerae neuraminidase, cleaves terminal sialic acids
% Control Mean Lymphocyte Binding [1]: 0.3 % Control | CHO-E cell rolling / E-selectin ligand activity of HL60 cells [2]: completely inhibited | CHO-E cell rolling / E-selectin ligand activity of KG1a cells [3]: completely inhibited
